A value given as a limit tells only on which side of the number the result lay.

Experiment [1] concerns patient-derived fibroblast lines with MTHFD1 mutations. Nature of the experiment: adenosine toxicity in fibroblasts from MTHFD1 deficiency patients. In kind it is cell-based. Conditions: patient-derived cells. On the procedure: Patient-derived fibroblast and control fibroblast lines were cultured in Minimum Essential Medium alpha media (MEMα, no nucleosides, Gibco), supplemented with 10% FBS and 1% P/S. These patient-derived fibroblast lines were previously characterized in Burda et al. 2015. For the experiments using dialyzed FBS, the dialyzed FBS was purchased from Gibco and added to IMDM at a final concentration of 10%. All the cell lines were incubated in 5% CO2 atmosphere at 37° C.

Experiment [2] concerns the target T1, NUDT5 (Homo sapiens, UniProt Q9UKK9). Nature of the experiment: NUDT5 degradation by Western blot in HEK293 cells. It is filed as cell-based. More on the design: endogenous in cells; host or cells: HEK293 (also CRBN knock-out HEK293 for A13). As for the experimental part: For Western blots, proteins were separated on polyacrylamide gels with SDS running buffer (50 mM Tris, 380 mM Glycine, 7 mM SDS) and transferred to PVDF membranes. All membranes were then blocked with blocking buffer (5% w/v milk powder, BioRad) in TBST (50 mM Tris (tris(hydroxymethylaminomethane), 150 mM NaCl, 0.05% (v/v) Tween 20, adjusted to pH 7.6) Proteins were probed with antibodies against phospho-AMPK (50081S, 1:2000, Cell Signaling Technologies), AMPK (5832S, 1:2000, Cell Signaling Technologies), PML (ab179466, 1:1000, abeam), PARP8 (NBP213733, 1:1000, Novus Biologicals), ATF2/7 (82870, 1:1000, Cell Signaling Technologies), alpha-Tubulin (ab7291, 1:1000, Abeam), phospho-UBTF (ab182583, 1:1000, abeam), UBTF (HPA006385, 1:1000, Sigma), RBM38 (AV40862, 1:1000, Sigma), or NUDT5 (ab129172, 1:1000, abeam), detected by HRP (horse-radish peroxidase) conjugated donkey anti-rabbit IgG antibody (Pierce) or donkey anti-mouse antibody IgG antibody (Pierce) and visualized with Clarity ECL Western Blotting substrate (BioRad), according to provided protocol.

Experiment [3] concerns the target T1, NUDT5. Nature of the experiment: CRBN knock-out experiment, NUDT5 degradation. It is filed as cell-based. Also on record: endogenous in cells; host or cells: HEK293 (also CRBN knock-out HEK293 for A13). Conditions: CRBN knock-out HEK293 cells, 20 h.
For another experiment, the system named is HAP1 cells. Nature of the experiment: untargeted global proteomics. In kind it is cell-based, human. As to conditions: 100 nM, 6 and 24 h. As for the experimental part:
Proteomics samples were digested with trypsin using STrap columns following the manufacturer's protocol (C02-micro, ProtiFi). For untargeted global proteomics HAP1 cells were treated with DMSO or 100 nM dNUDT5 for 6 h or 24 h. Then, the cell pellets were collected and lysed in 5% SDS containing 1 μL/mL benzonase (E1014, Millipore) and subsequent short sonication to shear genomic DNA (1× 2 s pulse, 20% amplitude, microtip, Sonics Vibra Cell). 50 μg protein from the total cell lysate or 80% of the elution fraction of the chemical pulldown were first reduced by 20 mM dithiothreitol (M02712, Fluorochem), and alkylated by 40 mM iodoacetamide (I1149, Sigma). Phosphoric acid and S-Trap protein binding buffer were added into the sample lysates. Then, the SDS lysate/S-Trap buffer were loaded into a S-Trap column (C02-micro-80, ProtiFi). 1 μg of trypsin (V5111, Promega) was used to digest each sample at 37° C. for 20 h. The samples were then eluted and dried by vacuum centrifugation. […]
Raw data were searched against the human database (UP000005640, downloaded 08/21) using DIA-NN (Demichev et al. 2020 Nature Methods) by enabling FASTA digest for library free search and Deep learning-based spectra, RTs and IMs prediction. […] The protein groups matrix was further analysed using Perseus (1.6.2.1) or R studio (4.1.1). […] Proteins were removed if detected less than 2 times in each group. […]

The target in the next experiment is T2, NUDT5-CRBN interaction (Homo sapiens, UniProt Q96SW2+Q9UKK9).
T2 construct: expressed in transfected cells; host or cells: HEK293
Nature of the experiment: NanoBRET ternary complex formation (protein-protein interaction) assay. It is filed as cell-based. Conditions: HEK293 cells, 4 h. On the procedure:
For NanoBRET protein-protein interaction assay, NanoBRET Nano-Glo Detection System (N1662, Promega) was used according to the manufacturer's instruction. In brief, 220,000 HEK293 cells/ml was seeded in a 6-well plate. After 6 h, N-terminal nanoLuc NUDT5 and Halo-tag CRBN were then transfected into the cells using Fugene HD transfection reagent (E2312, Promega). The transfected HEK293 (220,000 cells/ml) were then replated onto a 384-well plate containing compounds. After 4 h incubation, NanoLuc substrate was added into each well and the signals were measured by PHERAstar Microplate Reader.
Compounds were dispensed in the 384-well plates by using Echo Acoustic Dispenser.
(In general: In BRET a luciferase serves as donor, and the signal depends on an acceptor being close.)

The next experiment deals with MTHFD1^K56R cells. Nature of the experiment: growth of MTHFD1^K56R cells in adenosine-containing media. In kind it is cell-based. As to conditions: 72 h. As for the experimental part: HAP1 (KBM7-derived, Horizon Discovery, C859), and HAP1 MTHFD1^KO, MTHFD1^K56R, and MTHFD1^K386E cell lines were cultured in Iscove's Modified Dulbecco's Medium (IMDM, Sigma), supplemented with 10% Fetal Bovine Serum (FBS, Sigma) and 1% Penicillin/Streptomycin (P/S, Sigma).
MTHFD1^KO cells in dialyzed FBS media were treated with a single nucleotide or folic acid metabolite for 72 hours. Cells were then stained with Hoechst, imaged, and counted using an Operetta (Perkin Elmer). For the AMPK activator studies, cells were stained with Hoechst, imaged, and counted using an Opera (Perkin Elmer). Similarly, MTHFD1^K56R cells in dialyzed FBS media were treated with adenosine for 72 hours. Cells were then stained with Hoechst, imaged, and counted using an Operetta (Perkin Elmer).

What is called DC50 is the concentration at which degradation of the target reaches its halfway point. The low end stands for degradation at low concentration, the high end for degradation only at high concentration. On to `Cn1c(=O)c2c(nc(N3CCN(C(=O)N4CCC(CN5CCN(c6ccc7c(c6)C(=O)N(C6CCC(=O)NC6=O)C7=O)CC5)CC4)CC3)n2Cc2nnc(-c3ccc(Cl)c(Cl)c3)o2)n(C)c1=O` (stereo not drawn) [dNUDT5, 7-((5-(3,4-dichlorophenyl)-1,3,4-oxadiazol-2-yl)methyl)-8-(4-(4-((4-(2-(2,6-dioxopiperidin-3-yl)-1,3-dioxoisoindolin-5-yl)piperazin-1-yl)methyl)piperidine-1-carbonyl)piperazin-l-yl)-1,3-dimethyl-3,7-dihydro-1H-purine-2,6-dione], for which the “effect on adenosine-mediated toxicity” value in experiment [1] is reported as “reverses adenosine-mediated toxicity”. For the same molecule, the “NUDT5 degradation at 100 nM, 20 h (%)” value on NUDT5 [2] (100 nM, 20 h) worked out at 96%. For the same molecule, on NUDT5 [2] (HEK293 and HAP-1 cells), the “concentration beyond which degradation efficiency declines (hook effect)” value was > 300 nM. Moreover, at NUDT5 [2] (HEK293 cells), it took 500 pM to reach half-maximal degradation (DC50). Further, the “dependence of NUDT5 degradation (rescue experiments)” value at NUDT5 [2] (competition with TH5427, MLN4924, MG132, HEK293 cells) was “E3 ligase- and proteasome-dependent”. Further, the “dependence of degradation on E3 ligase” value on NUDT5 [3] is listed as “E3-ligase-dependant”. Also, the “proteome-wide specificity of degradation” value in the experiment on HAP1 cells is “highly specific for NUDT5 with no other protein being degraded”. Further, the “ternary complex formation between NUDT5 and CRBN” value on NUDT5-CRBN interaction is “able to induce proficient ternary complex formation”. Moreover, the “concentration of maximum rescue of cell viability” value in the experiment with MTHFD1^K56R cells (adenosine supplementation) is on record as 100 nM. In addition, the “effect on adenosine toxicity / viability” value with MTHFD1^K56R cells (adenosine-containing media) is “prevented adenosine toxicity”.

The values are drawn from patent US20260200923A1, “HETEROCYCLIC COMPOUNDS TARGETING THE NUDT5 PROTEIN” (Oxford University Innovation Limited, priority 2022, published 2026).
